Data from patent publication US9629813B2, “Nanoparticle formulations with enhanced mucosal penetration” (The Johns Hopkins University, priority 2012, dated 2017).
Values belong to the molecule of their own block, whether it stands above or below them.

Columns and labels:
[1] = Drug distribution in the vagina (Doxorubicin surface coverage on flattened tissue); format: in vivo, mouse; conditions: for vaginal tissue area covered: non-ambulatory (supine for 1 h)
Method: (§1) Female 6-8 week-old CF-1 mice were purchased from Harlan (Indianapolis, Ind.). Mice were housed in a reverse light cycle facility (12 h light/12 h dark), to enable selection of mice in a naturally cycling estrus state. The mouse vagina during the estrus phase of the estrous cycle is most similar to the human vagina. Barrier properties to nanoparticles in estrus phase mouse mucus closely mimic the barrier properties to nanoparticles in human CVM. Thus, mice in estrus phase, as determined visually by the appearance of the vaginal introitus, were used for all distribution and retention studies. Mice used for vaginal HSV-2 protection and susceptibility studies were given a subcutaneous flank injection of 2.5 mg Depo-Provera (Pharmacia & Upjohn Company, New York, N.Y.) in 100 μL phosphate-buffered saline (PBS) 7 days prior to experiments. This treatment is commonly used to increase susceptibility to vaginal HSV-2 infection. All experimental protocols were approved by the Johns Hopkins Animal Care and Use Committee.
Doxorubicin (NetQem, Durham, N.C.) was dissolved at 1 mg/ml concentration in either PBS (isoosmolar with respect to blood) or ultrapure water (hypoosmolar). For 1 liter of 1×PBS, 800 ml of distilled water; 8 g of NaCl; 0.2 g of KCl; 1.44 g of Na2HPO4; 0.24 g of KH2PO4: adjust the pH to 7.4 with HCl, add distilled water to a total volume of 1 liter.
Doxorubicin was vaginally administered both isoosmotically and hypoosmotically to mice in two different conditions. The “non-ambulatory” group was anesthetized with an intraperitoneal injection of Avertin working solution (prepared according to Johns Hopkins ACUC guidelines) and remained supine for 1 hr prior to tissue collection. […] The images were ‘thresholded’ to draw region of interest boundaries around the fluorescent signal, and then the area covered quantified using ImageJ software. An average percentage coverage was determined for each mouse, and these values were averaged over groups of n=5 mice.

[2] = Drug retention in the vagina (Doxorubicin fluorescence of whole cervicovaginal tract); format: in vivo, mouse; conditions: after 10 min supine; normalized to isoosmolar group
Method: Female 6-8 week-old CF-1 mice were purchased from Harlan (Indianapolis, Ind.). Mice were housed in a reverse light cycle facility (12 h light/12 h dark), to enable selection of mice in a naturally cycling estrus state. The mouse vagina during the estrus phase of the estrous cycle is most similar to the human vagina. Barrier properties to nanoparticles in estrus phase mouse mucus closely mimic the barrier properties to nanoparticles in human CVM. Thus, mice in estrus phase, as determined visually by the appearance of the vaginal introitus, were used for all distribution and retention studies. […]
Doxorubicin vas dissolved at a concentration 1 mg/ml in phosphate buffeted saline (“PBS”) (isoosmolar with respect to blood) or ultrapure water (hypoosmolar). […] Fluorescence images of the tissues were obtained using the Xenogen IVIS Spectrum imaging device (Caliper Life Sciences). To account for potential differences in Doxorubicin solution fluorescence, vials of both isoosmolar and hypoosmolar Doxorubicin solutions were included in the image. The ratio of the intensity of the two solutions was used to normalize the tissue fluorescence for each group. Quantification of fluorescent counts per unit area was calculated using the Xenogen Living Image 2.5 software. […]

[3] = Vaginal epithelial distribution of FITC-containing biodegradable MPP versus FITC in HEC gel after 24 h; format: in vivo, mouse; conditions: MPP in UP water, FITC in isoosmolar HEC gel
Method: Biodegradable MPP containing FITC intravaginally was administered in UP water. As a comparison, FITC in the standard isoosmolar placebo gel, hydroxyethylcellulose (HEC), was administered. After 24 h, the vaginal tissue was excised and flattened between two glass slides.

[4] = test system: HSV-2 strain G; assay: HSV-2 infection mouse model (vaginal protection); format: in vivo; conditions: 10 ID50
Method: as §1
Mice received 20 μl of 10 mg/ml acyclovir monophosphate dissolved in either PBS (isoosmolar) or ultrapure water (hypoosmolar) immediately before use. […] Mice were dosed either 1 min or 60 min prior to viral inoculum. Mice were then challenged with 10 μl of inoculum containing HSV-2 strain G (ATCC #VR-724, 2.8×10^7 TCID50 per ml). For protection studies, HSV-2 was diluted 10-fold with Bartel's medium to deliver 10 ID50, a dose that typically infects 85-90% of control mice. For osmotic-induced susceptibility tests, virus was diluted 10-fold with Bartel's medium and further diluted 10-fold in either Bartel's medium (isoosmolar) or deionized water (hypoosmolar) to the ID50, a dose that infects half of the mice. Mice were assessed for infection three days later after inoculation by culturing a PBS vaginal lavage on human foreskin fibroblasts (Diagnostic Hybrids, MRHF Lot #440318W). In this model, input (challenge) virus is no longer detectable in lavage fluid if it is collected more than 12 h after the challenge.
The Wilcoxon rank-sum test was used to compare data sets. This test is non-parametric, and more appropriate in situations where a Gaussian distribution cannot be assumed. For HSV-2 infection studies, statistical significance was determined using Fisher's exact test, two-tailed distribution.

- vaginal surface area covered ([1]; ambulatory for 10 mins, isoosmolar (isotonic) solution): 25%
- vaginal tissue area covered ([1]; hypoosmolar solution (ultrapure water)): 88%
- vaginal tissue area covered ([1]; isoosmolar solution (PBS)): 15%
- relative fluorescent signal in reproductive tract, hypoosmolar versus isoosmolar solution [2]: half
Molecule: COc1cccc2c1C(=O)c1c(O)c3c(c(O)c1C2=O)C[C@@](O)(C(=O)CO)C[C@@H]3O[C@H]1C[C@H](N)[C@H](O)[C@H](C)O1 [Doxorubicin]

- epithelial distribution on flattened vaginal tissue [3]: sparsely distributed
Molecule: FITC

Molecule: acyclovir monophosphate [ACVp]
- mice infected ([4]; 1% ACVp 1 min before virus, administered hypotonically): 31%
- mice infected ([4]; 1% ACVp 1 min before virus, administered isotonically): 49%
- mice infected ([4]; 1% ACVp 1 h before virus, administered hypotonically): 73%
- mice infected ([4]; 1% ACVp 1 h before virus, administered isotonically): 45%
